Measured values taken from article PMC10606834, “Is the Neuropeptide PEN a Ligand of GPR83?” (International Journal of Molecular Sciences, 2023).
Entries after “also recorded” stand apart in the source; their conditions may differ.

How the values were obtained:
Assay type in all cases: cell-based, human
GPR83 (HTLA cells) = test: TANGO β-arrestin assay, GPR83; conditions: ligand library containing PEN (library plates 10 µM); HTLA cells expressing GPR83; PRESTO-Tango, RLU
Method: The TANGO assay reports GPCR-related activation of β-arrestin using a luminescent readout.
For the determination of β-arrestin recruitment after GPCR activation, the PRESTO-Tango system was utilized. On day one, HTLA cells (HEK293 cell line stably expressing a tTA-dependent luciferase reporter and a β-arrestin2-TEV fusion gene, maintained in RPMI supplemented with 10% FBS, 2 μg/mL puromycin, and 100 μg/mL hygromycin) were seeded into 150 mm cell culture plates at 1 × 10^7 cells per well in 30 mL of medium. The next day, transfections were performed directly in the 150 mm plates using jetPEI (Polyplus, Illkirch, France). Plasmid DNA of interest was prepared for transfection following the jetPEI protocol and with a DNA/jetPEI ratio of 1:1. A GFP-encoding plasmid was added as a transfection control (GFP plasmid added as 10% of total DNA to the total NaCl used for plasmid DNA dilution). On day 3, transfected cells were transferred at 15,000 cells per well in 30 μL of medium into 384-well black well, clear bottom plates. On day 4, ligand library multiwall plates (10 µM) were thawed, and 23 μL was added to each well. On day 5, 50 μL per well of BrightGlo luminescence reagent (diluted 10-fold with HBSS buffer) was carefully added, and plates were incubated for 10 min before luminescence reading in the EnVision 2103 Multilabel Reader (Perkin Elmer).

[1] = tested on: ERK1/2 phosphorylation in wild-type HEK293 cells; test: ERK1/2 phosphorylation (immunoblot), wild-type cells; conditions: 10 µM PEN #1, 15 min, n = 2
Source text: Apart from G protein-mediated second messenger signaling via Ca^2+ and cAMP, GPCR stimulation may also lead to activation of β-arrestin and phosphorylation of extracellular signal-regulated kinases 1/2 (ERK1/2). Immunoblot analysis was employed to investigate ligand-dependent phosphorylation of ERK1/2 in HEK293 cells overexpressing GPR83 or the deletion variant GPR83del as well as in wild-type HEK293 cells.
Figure 4 Ligand-dependent phosphorylation of ERK1/2 and β-arrestin (TANGO) assay. (A) Immunoblot detection of phosphorylated (upper blot) and total (lower blot) ERK1/2 in lysates of HEK293 wild-type cells and in HEK293 cells overexpressing GPR83 or GPR83del. (B) Quantification (mean ± SD of n = 2 independent experiments) of chemiluminescent readout of the immunoblots shown in (A). (C) TANGO assay for ligand-induced β-arrestin activity in HTLA cells overexpressing GPR83 (relative light units, RLU). (D) TANGO assay for ligand-induced β-arrestin activity in HTLA cells overexpressing bradykinin receptor BDKBR2.
4.7. ERK1/2 Phosphorylation Assay
Effects of GPCR ligands on MAPK signaling were assessed with Western blot analysis of lysates from stimulated cells. The ERK1/2 activation assay was performed as described before. […] Blots were analyzed using densitometric quantification using Image Lab Software v4.1 (Bio-Rad).

[2] = tested on: GPR83 and GPR83del (HEK293 and U2OS clones; wild-type cells as comparison); test: Ligand-dependent cAMP formation
Method: Production of cyclic adenosine monophosphate (cAMP) is a hallmark of GPCRs signaling via the Gs-induced pathway. To investigate the potential of PEN to stimulate cAMP production mediated by GPR83, levels of the second messenger were determined after incubation with PEN of various GPR83-overexpressing clones as well as wild-type HEK293 and U2OS cells.
Figure 3 Analysis of ligand-dependent, GPR83-mediated cAMP production. (A) Wild-type HEK293 and U2OS cells as well as various clones with confirmed overexpression of either GPR83 or the deletion variant GPR83del (both ± HA tag) were incubated with either buffer, 1 µM PEN, or 50 µM forskolin. (B) Selected GPR83-overexpressing HEK293 clones were assayed for cAMP production using different concentrations of PEN. (C) Selected GPR83-overexpressing U2OS clones were assayed for cAMP production using different concentrations of PEN.
To measure intracellular cAMP production, the LANCE Ultra cAMP kit (Perkin Elmer) was used according to the manufacturer’s instructions. The day before the experiment, cells were seeded onto a 96-well plate with approximately 80% confluence. After 16–24 h, the medium was removed, and 100 μL/well of serum-free medium was added, followed by a 3 h incubation. Thereafter, medium was removed, and 40 μL of ligand dissolved in cAMP stimulation buffer was pipetted onto cells, then incubated for 10 min. The ligands used were pipetted in duplicate. For concentration–response curves, serial dilutions were carried out from the stock solutions of 1 mM to create a concentration range from 1 µM to 30 pM. As controls, 4 wells were treated with buffer only (negative control) and 4 wells with 50 μM forskolin (positive control). After a 10 min incubation, 10 μL of a 0.5% Triton-X 100 solution in PBS was added to each well. To lyse cells, the plate was shaken on a Vibramax 100 Shaker (Heidolph, Kelheim, Germany) (750 rpm) at room temperature for 10 min. A 10 μL volume of the cell lysates were transferred into a white 384 well plate (ProxiPlate, PerkinElmer). A 5 μL volume of the Europium-cAMP tracer (1 to 50 dilution of Eu-tracer stock in cAMP detection buffer) was added to each well. Next, 5 μL of the ULight-anti-cAMP solution (1 to 150 dilution of ULight-tracer stock in cAMP detection buffer) was added to each well. After a 1 h incubation period at room temperature in the dark, the TR-FRET signal was measured using an EnVision 2103 Multilabel Reader (Perkin Elmer).

AADHDVGSELPPEGVLGALLRV [PEN, batch #1 synthesized, batch #2 purchased from Phoenix Pharmaceuticals]
β-arrestin activation (luminescence) (GPR83 (HTLA cells)): no reactivity was detected; also recorded: failed to generate a signal | phosphorylation of ERK1/2, wild-type HEK293 versus GPR83 or GPR83del cells [1]: equally strong ERK1/2 phosphorylation in wild-type HEK293 cells as well as in HEK293 cells overexpressing GPR83 or GPR83del; also recorded: also demonstrated a similar phosphorylation after incubation with PEN | cAMP levels ([2]; 1 µM PEN or 50 µM forskolin, GPR83-overexpressing clones and wild-type HEK293 and U2OS cells, 10 min incubation, LANCE Ultra cAMP kit, TR-FRET competition, duplicate): did not change it | cAMP formation, concentration-response ([2]; titration 50 pM to 1 µM, selected GPR83-expressing HEK293 and U2OS clones, LANCE Ultra cAMP kit, TR-FRET, 10 min incubation, duplicate): did not indicate PEN-dependent cAMP formation | increased (via Gs) or decreased (via Gi) production of cAMP ([2]; up to 1 µM PEN, multiple clones of GPR83-overexpressing HEK293 and U2OS cells): did not reveal any evidence for an increased (via Gs) or decreased (via Gi) production of cAMP
